Data: patent US20220306622A1, “SALT AND CRYSTAL FORM OF MTORC1/2 DUAL KINASE ACTIVITY INHIBITOR AND PREPARATION METHOD THEREFOR” (MEDSHINE DISCOVERY INC., priority 2019, published 2022)
“Also recorded” adds a separate entry of the source. Blank lines part the entries; values can stand above or below the compound they belong to.

Tests used:
[1] = Solid stability test under long-term and accelerated conditions (XRPD); format: physicochemical
Method: Each sample was put into a double-layer LDPE Bag with each layer buckled and sealed respectively, and then the LDPE Bag was put into an aluminum foil bag and heat sealed. The samples were investigated for XRPD under the conditions of 25° C./60% RH (14 bags), 30° C./65% RH (10 bags) and 40° C./75% RH (10 bags). The test results were compared with the initial test results of 0 days.

[2] = Dynamic vapor sorption (DVS) hygroscopicity study; format: physicochemical; settings: 25.6° C. and 80% RH
Method: Instrument model: SMS DVS Advantage dynamic vapour adsorbent device
Test conditions: taking the sample (10-15 mg) and putting it into a DVS sample tray for test.
Detailed DVS parameters are as follows:
Balance: dm/dt=0.01%/min (minimum: 10 min, maximum: 180 min)
RH(%) test step range: 0%-90%-0% RH (%)
The evaluation of moisture absorption is classed as follows:
DVS Advantage dynamic vapour adsorbent device

[3] = test system: subcutaneous xenografts of human breast cancer MCF-7 cell; assay: In vivo pharmacodynamic study, subcutaneous MCF-7 xenograft model; set-up: species or system nude BALB/c mice
Method: Experimental objective: to study the in vivo efficacy of the compound to be tested on subcutaneous xenografts of human breast cancer MCF-7 in nude BALB/c mice model.
Experimental animals: female BALB/C nude mice, 6-8 weeks old, weighing 18-22 g; Supplier: Shanghai Xipur Bikai Experimental Animal Co., Ltd.
Human breast cancer MCF-7 cells (ECACC, item number: 86012803) were cultured in monolayer in vitro. The culture conditions were EMEM (EBSS)+2 mM […]+1% Non Essential Amino Acids (NEAA) medium plus 10% fetal bovine serum, 100 U/mL penicillin and 100 μg/mL streptomycin, incubated in 5% CO2 incubator at 37° C. Cells were passaged through routine digestion using Trypsin EDTA twice a week. When the cell saturation was 80%-90% and the number reached the requirements, cells were collected, counted and inoculated. […]
The experimental index is used for investigating whether tumor growth is inhibited, delayed or cured. The tumor diameter was measured with a vernier caliper twice a week. […]
The antitumor effect of the compound was evaluated by TGI (%) or relative tumor proliferation rate T/C(%). […]
Relative tumor proliferation rate T/C (%): the calculation formula is as follows: T/C %=TRTV/CRTV (TRTV:RTV in treatment group; CRTV:RTV in negative control group). The relative tumor volume (RTV) is calculated according to the results of tumor measurement. […]

mTOR kinase = molecular target: T1, mTOR kinase (Homo sapiens, UniProt P42345); assay: mTOR kinase inhibitory activity in vitro (discoverx ligand-bead competition binding, qPCR)
T1 construct: purchased discoverx; host or cells: HEK-293
Method: This experiment was tested on discoverx, and all materials and methods were from discoverx.
1. The labeled mTOR kinase was stably expressed in HEK-293 cells.
2. Streptavidin magnetic beads were treated with biotinylated small molecule ligands for 30 minutes at room temperature to produce an affinity resin for kinase analysis;
3. The ligand beads were blocked with excess biotin and washed with buffer (1% bovine serum albumin, 20 […] of dithiothreitol) to wash off unbound ligands and nonspecifically bound ligands;
5. The test compound was dissolved in dimethyl sulfoxide;
6. All compounds used for measurement were dissolved in DMSO and then diluted directly to a concentration of 0.9%;
7. The solution was placed on 384 well polypropylene plates with a volume of 0.02 mL of each well;
8. The plate was shaked at room temperature for 1 hour;
9. The plate was washed with buffer (1× PBS, 0.05% Tween 20);
10. Affinity beads were resuspended in buffer (1× PBS, 0.05% Tween 20, 0.5 μM nonbiotin-affinity ligands) and incubated at room temperature for 30 minutes;
11. The kinase in eluent was measured for its concentration by qPCR.

[4] = Pharmacokinetic evaluation in plasma of mice (IV and PO); format: in vivo, BALB/C female mice; settings: mouse
Method: The tested compound was mixed with 5% DMSO/95% 10% polyoxyethylene castor oil (Cremophor EL) followed by vortex and ultrasonic treatment to prepare 1 mg/mL approximate clear solution, which was filtered by microporous membrane before used. BALB/C female mice of 18 to 20 g were injected with the compound solution intravenously at a dose of 1 or 2 mg/kg. The tested compound was mixed with 1% Tween […], 90% aqueous solution followed by vortex and ultrasonic treatment to prepare 1 mg/mL approximate clear solution, which was filtered by microporous membrane before used. BALB/C female mice of 18 to 20 g were given the candidate compound solution orally at a dose of 2 or 10 mg/kg. Whole blood was collected for a certain time to prepare plasma. The medicament was analyzed for its concentration by LC-MS/MS, and the pharmacokinetic parameters were calculated by Phoenix winnonlin software (pharsight company).

MCF-7 cells = assay: Cell proliferation inhibitory activity (Cell-Titer-Glo), MCF-7; format: cell-based, human
Method: (§1) Objective: the inhibitory activity of the compound to be tested was tested on cell proliferation.
(§2) Experimental principle: Luciferase in Cell-Titer-Glo reagent uses luciferin, oxygen and ATP as reaction substrates to produce oxidized luciferin and release energy in the form of light. Since ATP is required for luciferase reaction, the total amount of light produced by the reaction is directly proportional to the total amount of ATP in response to cell viability.
(§3) Cell lines: MCF-7 cell line (ATCC-CRL-22), HT-29 cell line (ATCC-HTB-38), OE21 (ECACC-96062201), NCI-N87 cell line (ATCC-CRL-5822)
(§4) Cell Titer-Glo® Luminescent cell viability test kit (Promega #G7573)
(§5) According to the schematic diagram of cell seed plate, 384 or 96 well plate was seeded based on 1000 cells per well with a density of 25 μL per well, and the edge well was supplemented with 25 μL PBS, instead of cells.
(§6) (1) The mother liquor of the compound was 10 mM, and the compound was diluted with DMSO to obtain its initial concentration of 4 mM. The compound was added into the mother liquor plate with 9 μL per well. […]
(§7) The cell plate was taken from the incubator and balanced at room temperature for 30 minutes. […] After 10 minutes, the plate reading was performed on PerkinElmer envision with setting the […] reading time of 0.2 seconds.

N87 cells = assay: Cell proliferation inhibitory activity (Cell-Titer-Glo), N87; format: cell-based
Method: as §1, §2, §3, §4, §5, §6, §7

- Crystal form (XRPD) ([1]; 25° C./60% RH, 3 months): Crystal form A
- Crystal form (XRPD) ([1]; 25° C./60% RH, 6 months): Crystal form A
- Crystal form (XRPD) ([1]; 40° C./75% RH, 3 months): Crystal form A
- Crystal form (XRPD) ([1]; 40° C./75% RH, 6 months): Crystal form A
- Crystal form (XRPD) ([1]; Day 0 (initial)): Crystal form A
- solid stability (in words) ([1]; high temperature, high humidity and strong light): good stability
- hygroscopicity (classification) [2]: without hygroscopicity
- ΔW % (hygroscopic weight gain) [2]: < 0.2%
Structure (SMILES): C[C@H]1COCCN1c1nc(N2CCOC3(CC3)C2)nc2nc(-c3cccc(C(N)=O)c3)ccc12

Structure (SMILES): CNC(=O)c1cccc(-c2ccc3c(N4CCOC[C@@H]4C)nc(N4CCOC[C@@H]4C)nc3n2)c1 [AZD2014, reference compound]
- RTV (day 27) ([3]; 15 mg/kg): 0.85 ± 0.26

- bioavailability ([4]; female, BALB/C, plasma, 10 mg/kg, oral administration): ~100%
Structure (SMILES): C[C@H]1COCCN1c1nc(N2CCOC3(CC3)C2)nc2nc(-c3cccc(C(N)=O)c3)ccc12 [Compound of formula (I)]
- mTOR kinase inhibitory activity (in words) (mTOR kinase): significant or even unexpected mTOR kinase inhibitory activity, which is better than the current clinical compound AZD2014
- efficacy in MCF-7 Xenograft tumor model compared with AZD2014 (in words) ([3]; mouse, in vivo): equivalent to that of AZD2014; also recorded: comparable to AZD2014
- pharmacokinetic properties compared with the reference compound (in words) [4]: the same or even better pharmacokinetic properties as the reference compound
- inhibitory activity on proliferation of MCF-7 cells (in words) (MCF-7 cells): obvious inhibitory activity
- inhibitory activity on proliferation of N87 cells (in words) (N87 cells): obvious inhibitory activity
